XC50 data for 85 molecules are collected here from ChEMBL document CHEMBL1157539, “Thousands of chemical starting points for antimalarial lead identification” (Nature, 2010).

Each structure is given as a SMILES string.

The test system of this assay is Plasmodium falciparum. The experiment in a line: GSK_TCMDC: Inhibition of Plasmodium falciparum 3D7 in whole erythrocytes, using parasite LDH activity as an index of growth. In kind it is functional, organism-based. The conditions noted are these: Plasmodium falciparum, 3D7.
`Nc1nc(N)c2c(Sc3ccccc3)cccc2n1`: the XC50 came to 645 nM.

On to `CC1(C)CCCN(Cc2c(O)ccc3c(O)c(-c4nc5ccccc5s4)c(=N)oc23)C1`, for which the XC50 worked out at 337 nM. In turn, `CCc1nc(N)nc(N)c1-c1ccccc1` returned an XC50 of 1180 nM. On to `O=C(NCCCCCN1CCC(c2c[nH]c3ccccc23)CC1)Nc1ccc(Cl)c(Cl)c1`, for which the XC50 stood at 920 nM. The figure for `CCN(CC)CCN(Cc1ccc(-c2ccc(C(F)(F)F)cc2)cc1)C(=O)c1ccc(-c2ccc(C#N)cc2)cc1` is 1110 nM; for `O=C(NCCN1CCCC1)N1CCCN(c2ncnc3cc(-c4ccc(Cl)cc4)sc23)CC1` it is 918 nM; for `Cc1cc(N[C@@H](Cc2ccccc2)C(=O)NCc2cccs2)nc(NCCOc2ccccc2)n1` it is 1480 nM. For `CCCN(CCC)C(=O)c1cc(-c2cccc(C)c2)nc2ccccc12`, the XC50 was 1060 nM. `Cc1ccc(C(NC(=O)c2ccccc2)c2ccc3cccnc3c2O)cc1` (stereo not given) came in with an XC50 of 961 nM. In turn, `COc1cccc(-c2ccc(C(=O)NCC3CCCN(Cc4cccc(C(F)(F)F)c4)C3)s2)c1` (stereo not given) had an XC50 of 1140 nM. Regarding `CC(C)Cc1ccc(N2CCN(CCCCNC(=O)c3ccc(NC(=O)c4cc(C(F)(F)F)cc(C(F)(F)F)c4)cc3)CC2)cc1`, the XC50 came to 179 nM. `CC(C)(C)c1ccc(NC(=O)c2cccc(CN3CCN(Cc4cccc(O)c4)CC3)c2)cc1` had an XC50 of 1400 nM.

As for `O=C(/C=C/c1ccc(Cl)c(Cl)c1)NCCCCCN1CCC(NC(=O)c2ccc(F)cc2F)CC1`, the XC50 turned out to be 759 nM.

In turn, `CCCc1cc(C)ccc1OCCCON1C(NC(=O)OCC)=NC(NC(=O)OCC)=NC1(C)C` returned an XC50 of 35.9 nM. As for `CCc1nc(N)nc(N)c1-c1ccc(F)c(F)c1`, the XC50 turned out to be 417 nM. In the case of `Cc1cc(O)c(-c2ccc(Oc3ccc(F)cc3)cc2)c(C)n1` it was 972 nM; in that of `O=C(NCCc1ccccc1)N(Cc1ccccc1-c1ccc(CNCCc2ccccc2)cc1)C1CCN(Cc2ccccc2)CC1`, 716 nM; in that of `CC1(C)NC(N)=NC(=N)N1OCCCOc1cccc(Cl)c1`, 3.2 nM. The molecule `O=C(/C=C/c1ccc(Cl)c(Cl)c1)NCCCCCN1CCC(NC(=O)Nc2cccc(Cl)c2F)CC1` had an XC50 of 378 nM. The figure for `COc1cccc(Nc2c(C(N)=O)cnc3ccc(-c4ccc([S+](C)[O-])cc4)cc23)c1` (stereo not given) is 186 nM.

The molecule `Cc1nn(C)cc1C(C)Nc1nncc(-c2ccc(C(F)(F)F)cc2)n1` (stereo not given) showed an XC50 of 246 nM. The figure for `Oc1ccc2ccccc2c1CNC1CCCCCC1` is 933 nM. Molecule `O=C(NCCCCCCNCc1ccc(-c2ccccc2)cc1)Nc1ccc(Cl)c(Cl)c1` registered an XC50 of 962 nM. In the case of `Cc1[nH]c2ccc(-c3ccc(N(C)C)cc3)cc2c(=O)c1Cl` it was 720 nM; in that of `CN(C)CCOc1cccc(-c2cnc(N)c(-c3nc4cc(S(C)(=O)=O)ccc4[nH]3)c2)c1`, 950 nM; in that of `Cc1noc(C)c1-c1cccc(CNCc2cccc(-c3cccc(-c4nc5cccc(C)c5[nH]4)c3)c2)c1`, 370 nM. The molecule `CCOC(=O)Cn1ccc2c(NCc3ccccc3)nc(C)nc21` displayed an XC50 of 374 nM. The molecule `N=C(NCC1CC1c1ccccc1)c1cccc(C(=N)NCC2CC2c2ccccc2)n1` (stereo not given) showed an XC50 of 1760 nM. Turning to `CN(C)CCCn1c(N)c(-c2nc3ccccc3[nH]2)c2nc(C#N)c(C#N)nc21`, the XC50 was determined as 591 nM. `O=C(Nc1ccc2nc3n(c(=O)c2c1)CCCCC3)C(=O)N1CCC(Cc2ccccc2)CC1` yielded an XC50 of 757 nM. Consider `O=C(/C=C/c1ccc(Cl)c(Cl)c1)NCCCCCN1CCC(NC(=O)Nc2ccc(OC(F)F)cc2)CC1`, for which the XC50 amounted to 754 nM.

`Nc1c2ccccc2nc2cc([N+](=O)[O-])ccc12` showed an XC50 of 870 nM. The figure for `COc1ccc2nccc([C@@H](O)CN3CCC(NCc4cc5cccc(O)c5c(=O)[nH]4)CC3)c2c1` is 385 nM; for `N#Cc1c(N)nc(SCC(=O)Nc2cc(C(F)(F)F)ccc2Cl)c(C#N)c1-c1cccs1` it is 743 nM; for `CC(C)COc1ccc(Cl)cc1Cc1ccc(-c2nc3cc(N4CCN(C)CC4)ccc3[nH]2)o1` it is 945 nM. In turn, `CCCCCSc1cc(O)c(C(CNC)C(C)C)cc1OC` (stereo not given) registered an XC50 of 163 nM. On to `Oc1ccc2[nH]c(-c3cccs3)nc2c1CN1CCC(O)(c2ccccc2)CC1`, for which the XC50 is 782 nM.

Take `CCOc1c(CNCCCNc2cc(=O)c3ccccc3[nH]2)cc(I)cc1C(C)(C)C`: the XC50 came to 703 nM. `C#CCNCc1ccc(-c2ccc(-c3nc4cc(C(F)(F)F)ccc4[nH]3)s2)cc1`: the XC50 is 744 nM. Molecule `COc1cc(C(F)(F)F)nc2c(CNCCCNc3cc(=O)c4ccccc4[nH]3)scc12` came in with an XC50 of 1180 nM. In the case of `CN(c1ccc(NC(=O)Nc2cc(C(F)(F)F)ccc2F)cc1)c1ccnc(NCCN2CCCC2)n1` it was 1150 nM. The molecule `NC1=NC(c2ccccc2)(c2ccccc2)C(=O)N1CCCCc1ccccc1` showed an XC50 of 760 nM.

For the molecule `COc1ccc(CNCc2cccc(-c3ccc(-c4nc5cccc(C)c5[nH]4)cc3)c2)cc1`, the XC50 turned out to be 237 nM. `O=C(C=Cc1cn(-c2ccccc2)nc1-c1ccccc1)N1CCN(c2ccncc2)CC1` showed an XC50 of 965 nM.

`O=C(Nc1cccc(Oc2ccccc2)c1)N[C@H]1CCN(Cc2ccc(OCCCN3CCCCC3)cc2)C1`: the XC50 is 724 nM. On to `CC[C@H](C)CNC(=O)c1cncc(-c2cccc(CN3CCC(N4CCCC4)CC3)c2)c1`, for which the XC50 came out at 1170 nM. In turn, `CC(C)c1sc(N2CCN(C)CC2)nc1C(=O)Nc1cccc2c1CCCC2` displayed an XC50 of 1280 nM. `CCOC(=O)c1ccc(CC(C)NCC(O)c2cccc(C(F)(F)F)c2)cc1` (stereo not given) returned an XC50 of 216 nM. `CC(C)c1cccc(C(NC(=O)[C@H]2Cc3ccccc3CN2C(=O)c2cccc(N3CCOCC3)c2)C2CCCC2)c1` (stereo not given in full) yielded an XC50 of 723 nM.

With `CC(=O)N1N=C(c2ccc(F)cc2)Sc2c1nc(-c1ccccc1)n2C(C)=O`, the XC50 was found to be 651 nM. In turn, `COc1ccc(C2(CNCC(O)c3cccc([N+](=O)[O-])c3)CCCC2)cc1OC` (stereo not given) came in with an XC50 of 891 nM. On to `O=C(NC1CCC(CN2CCC(c3c[nH]c4ccccc34)CC2)CC1)C1(O)c2ccccc2-c2ccccc21` (stereo not given), for which the XC50 turned out to be 1190 nM. `c1ccc2[nH]c(-c3ccc(-c4ccc(CNCCc5ccncc5)cc4)s3)nc2c1` registered an XC50 of 158 nM. The molecule `O=C(Nc1cc(Cl)ccc1O)c1cc(-c2ccccc2O)no1` had an XC50 of 1090 nM. In the case of `CCc1cn2c3c(cc(C(=O)N[C@@H](Cc4ccccc4)[C@H](O)CN[C@@H](C)CC)cc13)N(C)S(=O)(=O)CC2`, the XC50 turned out to be 74.5 nM. As for `CCn1nc(C(=O)NC2CCOc3ccccc32)c2ccccc2c1=O` (stereo not given), the XC50 was determined as 1230 nM. `NCCCNc1ccc(-c2ccc(NC(=O)Nc3cc(C(F)(F)F)ccc3F)cc2)cn1` returned an XC50 of 837 nM. With `N#Cc1cc([N+](=O)[O-])ccc1-n1nc(-c2cccc(Cl)c2)n(CC2CCCO2)c1=S` (stereo not given), the XC50 was 914 nM. `COc1cc(NC(=O)N2CCOC(CCN3CCC(c4ccccc4)CC3)(c3ccc(Cl)c(Cl)c3)C2)cc(OC)c1OC` (stereo not given) displayed an XC50 of 65.1 nM.

Take `Cc1ccccc1C1CCN(C2CCC(NC(=O)/C=C/c3ccc(Cl)cc3)CC2)CC1` (stereo not given): the XC50 came to 805 nM.

For the molecule `CN1CCC(C(=O)N(Cc2ccc(-c3ccc(CNCCc4ccc(S(C)(=O)=O)cc4)cn3)cc2)Cc2ccc3c(c2)OCO3)CC1`, the XC50 is 1000 nM. As to `CN(C)CC1CCCN1Cc1ccccc1-c1cnn(C)c(=O)c1Oc1ccccc1F` (stereo not given), the XC50 amounted to 1310 nM.

In the case of `O=C(C=Cc1ccc(Cl)c(Cl)c1)NCCCCCN1CCC(CCCNC(=O)c2ccc3c(c2)OCO3)CC1`, the XC50 was determined as 149 nM. As to `N#Cc1cccc(NC(=O)NC2CCN(CCCCCNC(=O)/C=C/c3ccc(Cl)c(Cl)c3)CC2)c1`, the XC50 turned out to be 707 nM. Consider `COc1cc(NC(=O)c2cc3c(C)nn(-c4cccc(C(F)(F)F)c4)c3s2)cc(OC)c1OC`, for which the XC50 was 801 nM. In the case of `Cn1cccc1C(=O)NCC(CCNc1cc(=O)c2ccccc2[nH]1)NCc1cc(Br)cc(Br)c1` (stereo not given) it was 911 nM. For the molecule `C=C(C)CSc1nc2c(c(=O)n1Cc1ccco1)C1(CCCCC1)Cc1ccccc1-2`, the XC50 was determined as 997 nM. `CCC(C)OC(=O)C1=C(C)NC2=C(C(=O)CC(c3ccc(OC)c(OC)c3)C2)C1c1ccc(C)o1` (stereo not given): the XC50 is 899 nM. In the case of `CCCNCc1ccc(-c2ccc(CN(CCOC)C(=O)c3ccc([N+](=O)[O-])c(C)c3)cc2)nc1` it was 868 nM; in that of `N#Cc1ccc(NC(=O)Nc2ccc3c(c2)CCN(C2CCC2)CC3)cc1`, 628 nM; in that of `COc1cc(F)c2ncc(Cl)c([C@@H](O)CN3CCC(NCc4ccc5c(n4)NC(=O)CO5)CC3)c2c1`, 124 nM. `CC(C)c1ccc2c(c1)C(=O)c1ccc(C(=O)O)cc1S2(=O)=O`: the XC50 was 472 nM. With `COCCNc1nc(N2CCC(CNC(=O)c3ccc(-c4ccc(C(=O)N(C)C)cc4C)cc3)CC2)nc2cc(OC)c(OC)cc12`, the XC50 was found to be 1020 nM.

In turn, `CC(C)(CNC(=O)[C@@H]1CCCN(Cc2ccc(Cl)cc2)C1)c1nc(-c2ccc(Cl)c(O)c2)c(-c2ccncc2)[nH]1` showed an XC50 of 941 nM.

The molecule `O=C(Nc1ccc(Cl)cc1)Nc1cccc(-c2cc(CNCCc3ccccc3)oc2-c2ccncc2)c1` registered an XC50 of 279 nM. `Cc1ccc(C(=O)N2CCc3cc4nccc(N5CCN6CCC[C@H]6C5)c4cc32)cc1` returned an XC50 of 1100 nM.

Regarding `Cn1nc(-c2ccc(CNC3CCc4ccccc43)cc2)c2cnc(NCCN3CCCC3)nc21` (stereo not given), the XC50 was found to be 1350 nM.

Molecule `CC(CN1CCN(C)CC1)C(=O)Nc1cccc(-c2ccc(-c3nc4ccccc4[nH]3)cc2)c1` (stereo not given) displayed an XC50 of 943 nM. The molecule `O=C(Cc1ccc(-n2cnnn2)cc1)N(Cc1cncn1Cc1cccc(C(F)(F)F)c1)CC1CC1` yielded an XC50 of 962 nM.

`CCc1nc2c(N)nc(N)nc2nc1-c1ccc(OC)cc1`: the XC50 came out at 1200 nM. In turn, `O=C(CCc1c[nH]cn1)Nc1cccc(-c2ccc(-c3nc4ccccc4[nH]3)cc2)c1` showed an XC50 of 651 nM. In turn, `O=C(c1cc(-c2ccccc2)n[nH]1)N1CCN(S(=O)(=O)c2ccc(Cl)s2)CC1` came in with an XC50 of 925 nM. Molecule `O=C(Nc1ccc(-c2ccc(-c3nc4ccccc4[nH]3)s2)cc1)Nc1ccsc1` gave an XC50 of 279 nM.

`C=CCn1c(Sc2ccc(C#N)c([N+](=O)[O-])c2)nnc1-c1cc(OC)cc(OC)c1` yielded an XC50 of 436 nM.

Molecule `CCOc1cc(CC)ccc1C1CCN(CCCCNC(=O)c2ccc(NC(=O)c3ccc(C#N)cc3)cc2)CC1` gave an XC50 of 504 nM.
